Measurements published in ChEMBL document CHEMBL3822432, “Antibacterial and anticancer activity of a series of novel peptides incorporating cyclic tetra-substituted C(α) amino acids” (Bioorg Med Chem, 2016).
Values after ≈ are worked out from the molar mass of the structure shown. Non-standard residues stand in square brackets, D forms with d. Residues, ends and D or L forms follow the SMILES beside them. ξ: configuration not given here. Ac6c = NC1(C(=O)O)CCCCC1; Ac5c = NC1(C(=O)O)CCCC1; ξDap = NCC(N)C(=O)O

Assays:
Staphylococcus aureus [1] = experiment: Antibacterial activity against methicillin-resistant Staphylococcus aureus USA 300 NRS 384 by two fold serial dilution method; format: functional
Klebsiella aerogenes = experiment: Antibacterial activity against carbapenem-resistant Enterobacter aerogenes NCDC819-56 ATCC 13048 by two fold serial dilution method; format: functional
[2] = Antibacterial activity against Francisella tularensis SCHU S4 NR-643 by two fold serial dilution method; format: functional
[3] = Antibacterial activity against Clostridium difficile VIP 10463 ATCC 43255 by two fold serial dilution method; format: functional, Clostridium difficile ATCC 43255; conditions: Clostridioides difficile
Enterococcus faecalis = experiment: Antibacterial activity against Enterococcus faecalis Portland ATCC 29212 by two fold serial dilution method; format: functional; conditions: ATCC 29212 Portland
[4] = Antibacterial activity against Bacillus anthracis Ames NR-3838 by two fold serial dilution method; format: functional, Bacillus anthracis str. Ames
Pseudomonas aeruginosa = experiment: Antibacterial activity against Pseudomonas aeruginosa Boston 41501 ATCC 27853 by two fold serial dilution method; format: functional
[5] = Antibacterial activity against carbapenem-resistant Klebsiella pneumoniae K6 ATCC 700603 by two fold serial dilution method; format: functional, Klebsiella pneumoniae 700603
Neisseria gonorrhoeae = experiment: Antibacterial activity against Neisseria gonorrhoeae F-18 ATCC 49226 by two fold serial dilution method; format: functional
[6] = tested on: Mycobacterium tuberculosis; experiment: Antibacterial activity against Mycobacterium tuberculosis H37Ra ATCC 2517 by two fold serial dilution method; format: functional
[7] = Antibacterial activity against Salmonella enterica LT2 Typhimurium ATCC 15277 by two fold serial dilution method; format: functional
[8] = tested on: Burkholderia pseudomallei; experiment: Antibacterial activity against Burkholderia pseudomallei AHS 1 NCTC 8016 by two fold serial dilution method; format: functional
Staphylococcus aureus [9] = experiment: Antibacterial activity against Staphylococcus aureus Seattle 1945 ATCC 25923 by two fold serial dilution method; format: functional
Acinetobacter baumannii = experiment: Antibacterial activity against Acinetobacter baumannii B5W71 ATCC 15149 by two fold serial dilution method; format: functional
Streptococcus pneumoniae = experiment: Antibacterial activity against Streptococcus pneumoniae 262 ATCC 49619 by two fold serial dilution method; format: functional
[10] = Antibacterial activity against Yersinia pestis CO92 NR641 by two fold serial dilution method; format: functional
CFPAC-1 = experiment: Antiproliferative activity against human CFPAC-1 cells after 72 hrs by Celltiter-Glo luminescent cell viability assay; format: functional, cell-based; conditions: CFPAC-1, 72 h
[11] = Antiproliferative activity against human IGROV1 cells after 72 hrs by Celltiter-Glo luminescent cell viability assay; format: functional, cell-based; conditions: IGROV-1, 72 h
RL = experiment: Antiproliferative activity against human RL cells after 72 hrs by Celltiter-Glo luminescent cell viability assay; format: functional, cell-based
[12] = Antiproliferative activity against human MIAPaCa2 cells after 72 hrs by Celltiter-Glo luminescent cell viability assay; format: functional, cell-based; conditions: MIA PaCa-2, 72 h
[13] = Antiproliferative activity against human COLO205 cells after 72 hrs by Celltiter-Glo luminescent cell viability assay; format: functional, cell-based; conditions: COLO 205, 72 h
[14] = Antiproliferative activity against human UACC62 cells after 72 hrs by Celltiter-Glo luminescent cell viability assay; format: functional, cell-based; conditions: UACC-62, 72 h
[15] = Antiproliferative activity against human DLD1 cells after 72 hrs by Celltiter-Glo luminescent cell viability assay; format: functional, cell-based; conditions: DLD-1, 72 h
A549 = experiment: Antiproliferative activity against human A549 cells after 72 hrs by Celltiter-Glo luminescent cell viability assay; format: functional, cell-based; conditions: A549, 72 h
MCF7 = experiment: Antiproliferative activity against human MCF7 cells after 72 hrs by Celltiter-Glo luminescent cell viability assay; format: functional, cell-based; conditions: MCF7, 72 h
NCI-H69 = experiment: Antiproliferative activity against human NCI-H69 cells after 72 hrs by Celltiter-Glo luminescent cell viability assay; format: functional, cell-based; conditions: NCI-H69, 72 h
[16] = Antiproliferative activity against human PC3 cells after 72 hrs by Celltiter-Glo luminescent cell viability assay; format: functional, cell-based; conditions: PC-3, 72 h
A498 = experiment: Antiproliferative activity against human A498 cells after 72 hrs by Celltiter-Glo luminescent cell viability assay; format: functional, cell-based; conditions: A498, 72 h

Row | Compound | MIC (Staphylococcus aureus [1]) [µM] | MIC (Klebsiella aerogenes) [µM] | MIC [2] [µM] | MIC [3] [µM] | MIC (Enterococcus faecalis) [µM] | MIC [4] [µM] | MIC (Pseudomonas aeruginosa) [µM] | MIC [5] [µM] | MIC (Neisseria gonorrhoeae) [µM] | MIC [6] [µM] | MIC [7] [µM] | MIC [8] [µM] | MIC (Staphylococcus aureus [9]) [µM] | MIC (Acinetobacter baumannii) [µM] | MIC (Streptococcus pneumoniae) [µM] | MIC [10] [µM] | other results
1 | CC(=O)NCC(=O)N[C@@H](Cc1ccccc1)C(=O)NC1(C(=O)NCC(=O)NC2(C(=O)NC(CN)C(=O)NC3(C(=O)NCC(=O)NC4(C(=O)N[C@@H](Cc5ccccc5)C(=O)NC5(C(=O)NCC(=O)NC6(C(=O)NCC(=O)NC(CN)C(=O)NC7(C(=O)NC(CN)C(=O)NC(CN)C(=O)NC(CN)C(=O)NC(CN)C(N)=O)CCCCC7)CCCCC6)CCCCC5)CCCCC4)CCCCC3)CCCCC2)CCCCC1 (some centres not stated) (Ac-GF[Ac6c]G[Ac6c][ξDap][Ac6c]G[Ac6c]F[Ac6c]G[Ac6c]G[ξDap][Ac6c][ξDap][ξDap][ξDap][ξDap]-NH2) | 6.16 (≈ 12.5 µg/mL) | 1.54 (≈ 3.13 µg/mL) | 49.2 (≈ 99.9 µg/mL) | 3.08 (≈ 6.26 µg/mL) | 3.08 (≈ 6.26 µg/mL) | 6.16 (≈ 12.5 µg/mL) | 3.08 (≈ 6.26 µg/mL) | 3.08 (≈ 6.26 µg/mL) | 6.16 (≈ 12.5 µg/mL) | 24.6 (≈ 50 µg/mL) | 24.6 (≈ 50 µg/mL) | > 49 | 6.16 (≈ 12.5 µg/mL) | > 48 | 24.6 (≈ 50 µg/mL) | > 49 | –
2 | CN[C@@H](CC(C)C)C(=O)N[C@H]1C(=O)N[C@@H](CC(N)=O)C(=O)N[C@H]2C(=O)N[C@H]3C(=O)N[C@H](C(=O)N[C@@H](C(=O)O)c4cc(O)cc(O)c4-c4cc3ccc4O)[C@H](O)c3ccc(c(Cl)c3)Oc3cc2cc(c3O[C@H]2O[C@@H](CO)[C@H](O)[C@@H](O)[C@@H]2O[C@@H]2C[C@@](C)(N)[C@@H](O)[C@@H](C)O2)Oc2ccc(cc2Cl)[C@H]1O | 2.7 (≈ 3.91 µg/mL) | – | – | 0.17 (≈ 0.246 µg/mL) | – | – | – | – | – | – | – | – | – | – | 1.99 (≈ 2.88 µg/mL) | – | –
3 | CC(=O)NCC(=O)N[C@@H](Cc1ccccc1)C(=O)NC1(C(=O)NCC(=O)NC2(C(=O)N[C@@H](CCCCN)C(=O)NC3(C(=O)NCC(=O)NC4(C(=O)N[C@@H](Cc5ccccc5)C(=O)NC5(C(=O)NCC(=O)NC6(C(=O)NCC(=O)N[C@@H](CCCCN)C(=O)NC7(C(=O)N[C@@H](CCCCN)C(=O)N[C@@H](CCCCN)C(=O)N[C@@H](CCCCN)C(=O)N[C@@H](CCCCN)C(N)=O)CCCC7)CCCCC6)CCCC5)CCCCC4)CCCC3)CCCCC2)CCCC1 (Ac-GF[Ac5c]G[Ac6c]K[Ac5c]G[Ac6c]F[Ac5c]G[Ac6c]GK[Ac5c]KKKK-NH2) | > 45 | > 45 | 22.4 (≈ 49.9 µg/mL) | 1.4 (≈ 3.12 µg/mL) | > 45 | 22.4 (≈ 49.9 µg/mL) | 5.61 (≈ 12.5 µg/mL) | 44.8 (≈ 99.9 µg/mL) | 11.2 (≈ 25 µg/mL) | 22.4 (≈ 49.9 µg/mL) | 11.2 (≈ 25 µg/mL) | > 45 | 44.5 (≈ 99.1 µg/mL) | > 45 | > 45 | > 45 | IC50 (CFPAC-1): > 7.5 µM; IC50 [11]: > 7.5 µM; IC50 (RL): 6.7 µM; IC50 [12]: > 7.5 µM; IC50 [13]: > 7.5 µM; IC50 [14]: > 7.5 µM; IC50 [15]: > 7.5 µM; IC50 (A549): > 7.5 µM; IC50 (MCF7): > 7.5 µM; IC50 (NCI-H69): 5.9 µM; IC50 [16]: > 7.5 µM; IC50 (A498): > 7.5 µM
4 | CN(C)[C@@H]1C(O)=C(C(N)=O)C(=O)[C@@]2(O)C(O)=C3C(=O)c4c(O)cccc4[C@@](C)(O)[C@H]3C[C@@H]12 [TETRACYCLINE] | – | – | – | – | – | – | – | – | 2.25 (≈ 1 µg/mL) | – | – | 4.5 (≈ 2 µg/mL) | – | – | – | – | –
5 | C[C@H]1c2cccc(O)c2C(=O)C2=C(O)[C@]3(O)C(=O)C(C(N)=O)=C(O)[C@@H](N(C)C)[C@@H]3[C@@H](O)[C@@H]21 [DOXYCYCLINE] | – | – | 1.1 (≈ 0.489 µg/mL) | – | – | 0.87 (≈ 0.387 µg/mL) | – | – | – | – | – | – | – | – | – | 1.1 (≈ 0.489 µg/mL) | –
